Measured values taken from ChEMBL document CHEMBL5505992, “Novel membrane-targeting isoxanthohumol-amine conjugates for combating methicillin-resistant Staphylococcus aureus (MRSA) infections” (Eur J Med Chem, 2024).
Values after ≈ are worked out from the molar mass of the structure shown.

Columns and labels:
[1] = system: Staphylococcus aureus; assay: Antibacterial activity against Staphylococcus aureus ATCC 29213 measured after 16 to 18 hrs by CLSI method; type: functional; settings: time 16-18 hrs
[2] = system: Staphylococcus aureus; assay: Antibacterial activity against methicillin-resistant Staphylococcus aureus clinical isolate MRSA-11 measured after 16 to 18 hrs by CLSI method; type: functional; settings: time 16-18 hrs
[3] = system: Staphylococcus aureus; assay: Antibacterial activity against methicillin-resistant Staphylococcus aureus clinical isolate MRSA-13 measured after 16 to 18 hrs by CLSI method; type: functional; settings: time 16-18 hrs
[4] = system: Staphylococcus aureus; assay: Antibacterial activity against methicillin-resistant Staphylococcus aureus clinical isolate MRSA-14 measured after 16 to 18 hrs by CLSI method; type: functional; settings: time 16-18 hrs
[5] = system: Staphylococcus aureus; assay: Antibacterial activity against methicillin-resistant Staphylococcus aureus clinical isolate MRSA-16 measured after 16 to 18 hrs by CLSI method; type: functional; settings: time 16-18 hrs
[6] = system: Staphylococcus aureus; assay: Antibacterial activity against methicillin-resistant Staphylococcus aureus clinical isolate MRSA-17 measured after 16 to 18 hrs by CLSI method; type: functional; settings: time 16-18 hrs
[7] = system: Staphylococcus aureus; assay: Antibacterial activity against methicillin-resistant Staphylococcus aureus clinical isolate MRSA-18 measured after 16 to 18 hrs by CLSI method; type: functional; settings: time 16-18 hrs
[8] = system: Staphylococcus aureus; assay: Antibacterial activity against methicillin-resistant Staphylococcus aureus clinical isolate MRSA-20 measured after 16 to 18 hrs by CLSI method; type: functional; settings: time 16-18 hrs
[9] = system: Staphylococcus aureus; assay: Antibacterial activity against methicillin-resistant Staphylococcus aureus clinical isolate MRSA-21 measured after 16 to 18 hrs by CLSI method; type: functional; settings: time 16-18 hrs
[10] = system: Staphylococcus aureus; assay: Antibacterial activity against methicillin-resistant Staphylococcus aureus clinical isolate MRSA-22 measured after 16 to 18 hrs by CLSI method; type: functional; settings: time 16-18 hrs
[11] = system: Staphylococcus aureus; assay: Antibacterial activity against methicillin-resistant Staphylococcus aureus clinical isolate MRSA-23 measured after 16 to 18 hrs by CLSI method; type: functional; settings: time 16-18 hrs
[12] = system: Escherichia coli; assay: Antibacterial activity against Escherichia coli ATCC25922 measured after 16 to 18 hrs by CLSI method; type: functional; settings: time 16-18 hrs
[13] = Hemolytic activity in sheep erythrocytes incubated for 1 hr by absorbance based analysis; type: toxicity, cell-based, Ovis aries, Erythrocyte
[14] = Selectivity index, ratio of HC50 for hemolytic activity in sheep erythrocytes to MIC for antibacterial activity against Staphylococcus aureus ATCC 29213; type: toxicity, cell-based; settings: read-out: Selectivity Index

Compound | MIC [1] [µg/mL] | MIC [2] [µg/mL] | MIC [3] [µg/mL] | MIC [4] [µg/mL] | MIC [5] [µg/mL] | MIC [6] [µg/mL] | MIC [7] [µg/mL] | MIC [8] [µg/mL] | MIC [9] [µg/mL] | MIC [10] [µg/mL] | MIC [11] [µg/mL] | MIC [12] [µg/mL] | HC50 at 1 h [13] [µg/mL] | selectivity ratio [14]
COc1cc(OCCCCCN(CC(C)C)CC(C)C)c(CC=C(C)C)c2c1C(=O)CC(c1ccc(OCCCCCN(CC(C)C)CC(C)C)cc1)O2 (stereo not drawn) | > 128 | > 128 | > 128 | > 128 | > 128 | > 128 | > 128 | > 128 | > 128 | > 128 | > 128 | > 128 | > 1280 | 
COc1cc(OCCCCN2CCCCC2C)c(CC=C(C)C)c2c1C(=O)CC(c1ccc(OCCCCN3CCCCC3C)cc1)O2 (stereo not drawn) | 32 (≈ 48.4 µM) | 8 (≈ 12.1 µM) | 32 (≈ 48.4 µM) | 16 (≈ 24.2 µM) | 32 (≈ 48.4 µM) | 16 (≈ 24.2 µM) | 32 (≈ 48.4 µM) | 32 (≈ 48.4 µM) | 32 (≈ 48.4 µM) | 16 (≈ 24.2 µM) | 32 (≈ 48.4 µM) | > 128 | 275 | > 8.6
COc1cc(OCCCCCN2CCCC(C)C2)c(CC=C(C)C)c2c1C(=O)CC(c1ccc(OCCCCCN3CCCC(C)C3)cc1)O2 (stereo not drawn) | 16 (≈ 23.2 µM) | 8 (≈ 11.6 µM) | 8 (≈ 11.6 µM) | 8 (≈ 11.6 µM) | 8 (≈ 11.6 µM) | 8 (≈ 11.6 µM) | 8 (≈ 11.6 µM) | 8 (≈ 11.6 µM) | 4 (≈ 5.81 µM) | 8 (≈ 11.6 µM) | 8 (≈ 11.6 µM) | > 128 | 211 | 13.2
C[C@@H](O)[C@H]1C(=O)N2C(C(=O)O)=C(S[C@@H]3CN[C@H](C(=O)N(C)C)C3)[C@H](C)[C@H]12 [MEROPENEM] |  |  |  |  |  |  |  |  |  |  |  | 0.062 (≈ 0.162 µM) |  | 
CCCCN(CCCC)CCCCOc1ccc(C2CC(=O)c3c(OC)cc(OCCCCN(CCCC)CCCC)c(CC=C(C)C)c3O2)cc1 (stereo not drawn) | 4 (≈ 5.55 µM) | 8 (≈ 11.1 µM) | 8 (≈ 11.1 µM) | 4 (≈ 5.55 µM) | 4 (≈ 5.55 µM) | 4 (≈ 5.55 µM) | 8 (≈ 11.1 µM) | 4 (≈ 5.55 µM) | 8 (≈ 11.1 µM) | 8 (≈ 11.1 µM) | 8 (≈ 11.1 µM) | > 128 | 1200 | 300
COc1cc(OCCCN2CCN(C)CC2)c(CC=C(C)C)c2c1C(=O)CC(c1ccc(OCCCN3CCN(C)CC3)cc1)O2 (stereo not drawn) | 64 (≈ 101 µM) | 32 (≈ 50.4 µM) | 64 (≈ 101 µM) | 64 (≈ 101 µM) | 64 (≈ 101 µM) | 32 (≈ 50.4 µM) | 64 (≈ 101 µM) | 64 (≈ 101 µM) | 32 (≈ 50.4 µM) | 32 (≈ 50.4 µM) | 64 (≈ 101 µM) | > 128 | > 1280 | > 20
COc1cc(OCCCCCN2CCSCC2)c(CC=C(C)C)c2c1C(=O)CC(c1ccc(OCCCCCN3CCSCC3)cc1)O2 (stereo not drawn) | 32 (≈ 45.9 µM) | > 128 | > 128 | > 128 | > 128 | > 128 | > 128 | > 128 | > 128 | > 128 | > 128 | > 128 | > 640 | > 20
COc1cc(OCCCCCN2CCN(C)CC2)c(CC=C(C)C)c2c1C(=O)CC(c1ccc(OCCCCCN3CCN(C)CC3)cc1)O2 (stereo not drawn) | 16 (≈ 23.2 µM) | 16 (≈ 23.2 µM) | 16 (≈ 23.2 µM) | 16 (≈ 23.2 µM) | 16 (≈ 23.2 µM) | 8 (≈ 11.6 µM) | 16 (≈ 23.2 µM) | 16 (≈ 23.2 µM) | 16 (≈ 23.2 µM) | 16 (≈ 23.2 µM) | 16 (≈ 23.2 µM) | > 128 | > 1280 | > 80
CCCCN(CCCC)CCCOc1ccc(C2CC(=O)c3c(OC)cc(OCCCN(CCCC)CCCC)c(CC=C(C)C)c3O2)cc1 (stereo not drawn) | 8 (≈ 11.5 µM) | 8 (≈ 11.5 µM) | 8 (≈ 11.5 µM) | 4 (≈ 5.77 µM) | 4 (≈ 5.77 µM) | 4 (≈ 5.77 µM) | 8 (≈ 11.5 µM) | 8 (≈ 11.5 µM) | 8 (≈ 11.5 µM) | 4 (≈ 5.77 µM) | 8 (≈ 11.5 µM) | > 128 | 810 | 101
COc1cc(O)c(CC=C(C)C)c2c1C(=O)CC(c1ccc(O)cc1)O2 (stereo not drawn) [ISOXANTHOHUMOL] | > 64 | 64 (≈ 181 µM) | > 64 | > 64 | 64 (≈ 181 µM) | > 64 | > 64 | 64 (≈ 181 µM) | 64 (≈ 181 µM) | 64 (≈ 181 µM) | 64 (≈ 181 µM) | > 64 | > 320 | 
COc1cc(OCCCCN(CC(C)C)CC(C)C)c(CC=C(C)C)c2c1C(=O)CC(c1ccc(OCCCCN(CC(C)C)CC(C)C)cc1)O2 (stereo not drawn) | > 128 | > 128 | > 128 | > 128 | > 128 | > 128 | > 128 | > 128 | > 128 | > 128 | > 128 | > 128 | > 1280 | 
